Where two headings read alike, the source gives them in different places. *1 amine or outer side, *2 acyl side, *3 side chain or, on linkers, in order; H or OH if unused. Where a SMILES comes first, the peptide text is derived from it. Bridges are numbered along the chain shown (N, C = ends). [ ]: non-standard residue; d: D form. The star is where a group is joined. ξ: configuration not given here. DOTA = O=C(O)CN1CCN(CC(=O)O)CCN(CC(=O)*)CCN(CC(=O)O)CC1; X2 = O=C1NC(=O)C([*:3])=C1CC[C@H](N[*:1])C(=O)[*:2]; Maleimide(3,4-diyl) = O=C1NC(=O)C([*:2])=C1[*:1]; X7 = CN1C(=O)C([*:1])=C([*:2])C1=O; ξThr(3R) = C[C@@H](O)C(N)C(=O)O; β3hK = NCCCC[C@H](N)CC(=O)O; X3 = NCCNCC(CNCCN)C(=O)*; Hexanoyl = CCCCCC(=O)*; CO = O=C([*:1])[*:2]; ξP = O=C(O)C1CCCN1; NHBu = CCCCN*
How the values were obtained:
[1] = target: T1, FAP-expressing human WI-38 fibroblasts (Homo sapiens, UniProt Q12884); test: Competitive FACS binding assay;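 further: flow cytometry read-out of median Cy5 fluorescence on the cells, plotted versus test compound concentration, with IC50 derived by four-parameter logistic curve fitting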
T1 construct: FAP-expressing human WI-38 fibroblasts (ECACC) were cultured in EMEM; host or cells: WI-38 human fibroblasts
T1 sequence (Q12884 whole entry): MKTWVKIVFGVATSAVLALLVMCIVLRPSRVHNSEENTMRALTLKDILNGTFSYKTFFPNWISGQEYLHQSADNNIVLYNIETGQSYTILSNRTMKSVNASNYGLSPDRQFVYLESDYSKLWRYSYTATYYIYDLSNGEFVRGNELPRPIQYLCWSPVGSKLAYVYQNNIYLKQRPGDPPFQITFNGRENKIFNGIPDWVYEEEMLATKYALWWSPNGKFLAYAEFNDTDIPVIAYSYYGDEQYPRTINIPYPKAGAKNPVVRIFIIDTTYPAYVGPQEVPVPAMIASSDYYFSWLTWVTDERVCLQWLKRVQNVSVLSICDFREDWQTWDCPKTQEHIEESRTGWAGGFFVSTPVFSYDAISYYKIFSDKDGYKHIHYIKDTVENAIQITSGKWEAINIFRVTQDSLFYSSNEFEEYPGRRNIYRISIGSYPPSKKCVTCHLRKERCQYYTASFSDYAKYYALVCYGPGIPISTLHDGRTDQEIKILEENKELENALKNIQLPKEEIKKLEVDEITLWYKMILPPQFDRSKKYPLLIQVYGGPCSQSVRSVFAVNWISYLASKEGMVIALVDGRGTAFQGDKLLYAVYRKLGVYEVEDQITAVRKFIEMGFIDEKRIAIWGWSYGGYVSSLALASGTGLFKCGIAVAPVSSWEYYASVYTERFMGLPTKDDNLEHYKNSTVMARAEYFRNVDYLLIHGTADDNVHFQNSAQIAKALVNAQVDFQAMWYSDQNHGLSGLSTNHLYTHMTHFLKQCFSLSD

Recombinant human FAP = target: T2, Recombinant human FAP (Homo sapiens, UniProt Q12884); test: FRET-based FAP protease activity assay; assay type: biochemical
T2 construct: purchased R&D systems 3715-SE
T2 sequence (Q12884 26-760 limits assumed): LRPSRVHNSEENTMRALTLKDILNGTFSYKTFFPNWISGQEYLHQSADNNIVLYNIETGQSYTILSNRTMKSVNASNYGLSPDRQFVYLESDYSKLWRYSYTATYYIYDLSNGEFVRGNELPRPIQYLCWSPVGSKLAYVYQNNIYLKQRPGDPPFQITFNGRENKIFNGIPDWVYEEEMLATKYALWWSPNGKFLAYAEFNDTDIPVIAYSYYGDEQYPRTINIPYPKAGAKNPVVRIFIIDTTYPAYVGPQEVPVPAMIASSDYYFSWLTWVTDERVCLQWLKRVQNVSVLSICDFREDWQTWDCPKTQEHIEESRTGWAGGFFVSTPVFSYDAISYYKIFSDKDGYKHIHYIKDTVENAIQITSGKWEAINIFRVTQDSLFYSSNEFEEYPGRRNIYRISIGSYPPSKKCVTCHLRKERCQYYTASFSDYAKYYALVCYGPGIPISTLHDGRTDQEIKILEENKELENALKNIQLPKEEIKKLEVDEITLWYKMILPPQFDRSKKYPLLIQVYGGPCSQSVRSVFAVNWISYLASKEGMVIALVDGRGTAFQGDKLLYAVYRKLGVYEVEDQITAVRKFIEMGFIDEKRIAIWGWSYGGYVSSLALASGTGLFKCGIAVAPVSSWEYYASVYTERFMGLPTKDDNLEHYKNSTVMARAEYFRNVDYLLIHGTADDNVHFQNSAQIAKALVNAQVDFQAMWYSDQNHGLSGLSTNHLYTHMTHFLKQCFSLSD

[2] = competition with 3 nM Cy5-labeled compound, WI-38 fibroblasts, 4° C., 1 hour, read-out: pIC50 Category (FACS) (converted)
[3] = recombinant human FAP, FRET-peptide substrate, 37° C., read-out: pIC50 Category (Activity) (converted)

Compound	IC50 [1, 2]	IC50 (Recombinant human FAP; [3])	IC50 [1]	IC50 (Recombinant human FAP)	IC50 ([1]; read-out: pIC50 (highest activity categories, FACS binding) (converted))	IC50 (Recombinant human FAP; read-out: pIC50 (highest activity categories, FAP activity) (converted))
CCCCCC(=O)N[C@H]1CSC2=C(SC[C@@H](C(=O)N[C@@H](CC(=O)O)C(N)=O)NC(=O)[C@H](Cc3ccccc3)NC(=O)[C@H](CCC(N)=O)NC(=O)[C@H]([C@@H](C)O)NC(=O)[C@@H]3CCCN3C(=O)[C@@H]3CCCN3C1=O)C(=O)N(CCCC(=O)CN1CCN(CC(=O)O)CCN(CC(=O)O)CCN(CC(=O)O)CC1)C2=O [Compound 2018, Hex-[Cys(mli(DOTA-Eda))-Pro-Pro-Thr-Gln-Phe-Cys]-Asp-NH2] (HELM PEPTIDE1{[CCCCCC(=O)[*:2]].C.P.P.T.Q.F.C.D.[am]}|CHEM1{[O=C(O)CN1CCN(CC(=O)O)CCN(CC(=O)CCCN2C(=O)C([*:1])=C([*:2])C2=O)CCN(CC(=O)O)CC1]}$PEPTIDE1,CHEM1,2:R3-1:R1|PEPTIDE1,CHEM1,8:R3-1:R2$$$V2.0)			< 100 nM	< 100 nM		
CCCCCC(=O)N[C@H]1CSSC[C@@H](C(=O)N[C@@H](CC(=O)O)C(=O)N[C@@H](CCCCNC(=O)CN2CCN(CC(=O)O)CCN(CC(=O)O)CCN(CC(=O)O)CC2)C(N)=O)NC(=O)[C@H](Cc2ccccc2)NC(=O)[C@H](CCC(=O)O)NC(=O)[C@H]([C@@H](C)O)NC(=O)[C@@H]2CCCN2C(=O)[C@@H]2CCCN2C1=O [Compound 1013, Hex-[Cys-Pro-Pro-Thr-Glu-Phe-Cys]-Asp-Lys(DOTA)-NH2] (Hexanoyl-CPPTEFCDK(DOTA)-NH2; disulfide 1-7)	< 100 nM	< 100 nM				
CCCCNC(=O)N[C@H]1CSSC[C@@H](C(=O)N[C@@H](CCCCNC(=O)CN2CCN(CC(=O)O)CCN(CC(=O)O)CCN(CC(=O)O)CC2)CC(=O)O)NC(=O)[C@H](Cc2ccccc2)NC(=O)[C@H](CCC(=O)O)NC(=O)[C@H]([C@@H](C)O)NC(=O)[C@@H]2CCCN2C(=O)[C@@H]2CCCN2C1=O [Compound 1014, Buur-[Cys-Pro-Pro-Thr-Glu-Phe-Cys]-Bhk(DOTA)-OH] ({NHBu-CO}-CPPTEFC[β3hK](DOTA)-OH; disulfide 1-7)	< 100 nM	< 100 nM				
CCCC[C@H](NC(=O)COCCOCCNC(=O)CN1CCN(CC(=O)O)CCN(CC(=O)O)CCN(CC(=O)O)CC1)C(=O)N[C@H]1CSSC[C@@H](C(=O)N[C@@H](CC(=O)O)C(=O)N[C@@H](Cc2c[nH]cn2)C(=O)N[C@@H](Cc2ccccc2)C(=O)N[C@@H](CCCNC(=N)N)C(=O)N[C@@H](CC(=O)O)C(N)=O)NC(=O)[C@H](Cc2ccccc2)NC(=O)[C@H](CCC(=O)O)NC(=O)[C@H]([C@@H](C)O)NC(=O)[C@@H]2CCCN2C(=O)[C@@H]2CCCN2C1=O [Compound 1005, DOTA-O2Oc-Nle-[Cys-Pro-Pro-Thr-Glu-Phe-Cys]-Asp-His-Phe-Arg-Asp-NH2] (HELM PEPTIDE1{[O=C(O)CN1CCN(CC(=O)O)CCN(CC(=O)[*:2])CCN(CC(=O)O)CC1].[O=C(COCCOCCN[*:1])[*:2]].[Nle].C.P.P.T.E.F.C.D.H.F.R.D.[am]}$PEPTIDE1,PEPTIDE1,4:R3-10:R3$$$V2.0)	< 100 nM	< 100 nM			< 100 nM	< 100 nM
CCCCCC(=O)N[C@H]1CSC2=C(SC[C@@H](C(=O)N[C@@H](CC(=O)O)C(N)=O)NC(=O)[C@H](Cc3ccccc3)NC(=O)[C@H](CCC(N)=O)NC(=O)[C@H]([C@@H](C)O)NC(=O)[C@@H]3CCCN3C(=O)[C@@H]3CCCN3C1=O)C(=O)N(CCCOCCOCCOCCCNC(=O)C(CNCCN)CNCCN)C2=O [Compound 2026, Hex-[Cys(mli(N4Ac-Ttd))-Pro-Pro-Thr-Gln-Phe-Cys]-Asp-NH2] (HELM PEPTIDE1{[CCCCCC(=O)[*:2]].C.P.P.T.Q.F.C.D.[am]}|CHEM1{[NCCNCC(CNCCN)C(=O)NCCCOCCOCCOCCCN1C(=O)C([*:1])=C([*:2])C1=O]}$PEPTIDE1,CHEM1,2:R3-1:R1|PEPTIDE1,CHEM1,8:R3-1:R2$$$V2.0)			< 100 nM	< 100 nM		
CCCCCC(=O)N[C@H]1CSC2=C(SC[C@@H](C(=O)N[C@@H](CC(=O)O)C(N)=O)NC(=O)[C@H](Cc3ccccc3)NC(=O)[C@H](CCC(N)=O)NC(=O)[C@H]([C@@H](C)O)NC(=O)[C@@H]3CCCN3C(=O)[C@@H]3CCCN3C1=O)C(=O)N(CCCOCCOCCOCCCNC(=O)CN1CCN(CC(=O)O)CCN(CC(=O)O)CCN(CC(=O)O)CC1)C2=O [Compound 2017, Hex-[Cys(mli(DOTA-Ttd))-Pro-Pro-Thr-Gln-Phe-Cys]-Asp-NH2] (HELM PEPTIDE1{[CCCCCC(=O)[*:2]].C.P.P.T.Q.F.C.D.[am]}|CHEM1{[O=C(O)CN1CCN(CC(=O)O)CCN(CC(=O)NCCCOCCOCCOCCCN2C(=O)C([*:1])=C([*:2])C2=O)CCN(CC(=O)O)CC1]}$PEPTIDE1,CHEM1,2:R3-1:R1|PEPTIDE1,CHEM1,8:R3-1:R2$$$V2.0)			< 100 nM	< 100 nM		
CCCC[C@H](NC(=O)CCC(=O)NCCCOCCOCCOCCCNC(=O)CN1CCN(CC(=O)O)CCN(CC(=O)O)CCN(CC(=O)O)CC1)C(=O)N[C@H]1CSSC[C@@H](C(=O)NCCC(=O)O)NC(=O)[C@H](Cc2ccccc2)NC(=O)[C@H](CCC(N)=O)NC(=O)[C@H]([C@@H](C)O)NC(=O)[C@@H]2CCCN2C(=O)[C@@H]2CCCN2C1=O [Compound 1010, DOTA-Ttds-Nle-[Cys-Pro-Pro-Thr-Gln-Phe-Cys]-Bal-OH]	< 100 nM	< 100 nM				

Continued, in another order:

IC50 [1, 2]	IC50 (Recombinant human FAP; [3])	Compound	IC50 [1]	IC50 (Recombinant human FAP)	IC50 ([1]; read-out: pIC50 (highest activity categories, FACS binding) (converted))	IC50 (Recombinant human FAP; read-out: pIC50 (highest activity categories, FAP activity) (converted))
< 100 nM	< 100 nM	CCCCCC(=O)N[C@H]1CSSC[C@@H](C(=O)N[C@@H](CC(=O)O)C(=O)N[C@@H](CCCCNC(=O)CN2CCN(CC(=O)O)CCN(CC(=O)O)CCN(CC(=O)O)CC2)C(N)=O)NC(=O)[C@H](Cc2ccccc2)NC(=O)[C@H](CCC(N)=O)NC(=O)[C@H]([C@@H](C)O)NC(=O)[C@@H]2CCCN2C(=O)[C@@H]2CCCN2C1=O [Compound 1016, Hex-[Cys-Pro-Pro-Thr-Gln-Phe-Cys]-Asp-Lys(DOTA)-NH2] (Hexanoyl-CPPTQFCDK(DOTA)-NH2; disulfide 1-7)				
< 100 nM	< 100 nM	CCCCNC(=O)N[C@H]1CSC2=C(SC[C@@H](C(=O)N[C@@H](CC(=O)O)C(=O)N[C@@H](CCCCNC(=O)CN3CCN(CC(=O)O)CCN(CC(=O)O)CCN(CC(=O)O)CC3)C(N)=O)NC(=O)[C@H](Cc3ccccc3)NC(=O)[C@H](CCC(N)=O)NC(=O)C([C@@H](C)O)NC(=O)[C@@H]3CCCN3C(=O)[C@@H]3CCCN3C1=O)C(=O)NC2=O (stereo partly drawn) [Compound 2014, Buur-[Cys(mli)-Pro-Pro-Thr-Gln-Phe-Cys]-Asp-Lys(DOTA)-NH2] ({NHBu-CO}-CPP[ξThr(3R)]QFCDK(DOTA)-NH2; linker 1-7 via Maleimide(3,4-diyl))				
< 100 nM	< 100 nM	CCCC[C@H](NC(=O)CCC(=O)NCCCOCCOCCOCCCNC(=O)CN1CCN(CC(=O)O)CCN(CC(=O)O)CCN(CC(=O)O)CC1)C(=O)N[C@H]1CSC2=C(SC[C@@H](C(=O)O)NC(=O)[C@H](Cc3ccccc3)CC(=O)[C@H](CCC(N)=O)NC(=O)[C@H]([C@@H](C)O)NC(=O)[C@@H]3CCCN3C(=O)[C@@H]3CCCN3C1=O)C(=O)NC2=O [Compound 2008, DOTA-Ttds-Nle-[Cys(mli)-Pro-Pro-Thr-Gln-Phe-Cys]-OH]				
< 100 nM	< 100 nM	CCCCNC(=O)N[C@H]1CSC2=C(SC[C@@H](C(=O)N[C@@H](CC(=O)O)C(=O)N[C@@H](CCCCNC(=O)CN3CCN(CC(=O)O)CCN(CC(=O)O)CCN(CC(=O)O)CC3)C(N)=O)NC(=O)[C@H](Cc3ccccc3)NC(=O)[C@H](CCC(N)=O)NC(=O)C([C@@H](C)O)NC(=O)[C@@H]3CCCN3C(=O)[C@@H]3CCCN3C1=O)C(=O)N(C)C2=O (stereo partly drawn) [Compound 2015, Hex-[Cys(mli(Me))-Pro-Pro-Thr-Gln-Phe-Cys]-Asp-Lys(DOTA)-NH2] ({NHBu-CO}-CPP[ξThr(3R)]QFCDK(DOTA)-NH2; linker 1-7 via X7)				
< 100 nM	< 100 nM	CCCCCC(=O)N[C@H]1CSC2=C(SC[C@@H](C(=O)N[C@@H](CC(=O)O)C(=O)N[C@@H](CCCCNC(=O)CN3CCN(CC(=O)O)CCN(CC(=O)O)CCN(CC(=O)O)CC3)C(N)=O)NC(=O)[C@H](Cc3ccccc3)NC(=O)[C@H](CCC(N)=O)NC(=O)[C@H]([C@@H](C)O)NC(=O)[C@@H]3CCCN3C(=O)C3CCCN3C1=O)C(=O)NC2=O (stereo partly drawn) [Compound 2012, Hex-[Cys(mli)-Pro-Pro-Thr-Gln-Phe-Cys]-Asp-Lys(DOTA)-NH2] (Hexanoyl-C[ξP]PTQFCDK(DOTA)-NH2; linker 1-7 via Maleimide(3,4-diyl))				
< 100 nM	< 100 nM	CCCCCC(=O)N[C@H]1CSC2=C(CC[C@@H](C(=O)N[C@@H](CC(=O)O)C(=O)N[C@@H](CCCCNC(=O)C(CNCCN)CNCCN)C(N)=O)NC(=O)[C@H](Cc3ccccc3)NC(=O)[C@H](CCC(N)=O)NC(=O)[C@H]([C@@H](C)O)NC(=O)[C@@H]3CCCN3C(=O)[C@@H]3CCCN3C1=O)C(=O)NC2=O [Compound 2024, Hex-[Cys(mli)-Pro-Pro-Thr-Gln-Phe-Cys]-Asp-Lys(N4Ac)-NH2] (Hexanoyl-CPPTQF[X2]DK(X3)-NH2; thioether 1-7)				
< 100 nM	< 100 nM	CCCCCC(=O)N[C@H]1CSC2=C(SC[C@@H](C(=O)N[C@@H](CCCCNC(=O)CN3CCN(CC(=O)O)CCN(CC(=O)O)CCN(CC(=O)O)CC3)CC(=O)O)NC(=O)[C@H](Cc3ccccc3)NC(=O)[C@H](CCC(N)=O)NC(=O)[C@H]([C@@H](C)O)NC(=O)[C@@H]3CCCN3C(=O)[C@@H]3CCCN3C1=O)C(=O)NC2=O [Compound 2010, Hex-[Cys(mli)-Pro-Pro-Thr-Gln-Phe-Cys]-Bhk(DOTA)-OH]				
< 100 nM	< 100 nM	CCCC[C@H](NC(=O)CCC(=O)NCCCOCCOCCOCCCNC(=O)CC[C@H](C(=O)O)N1CCN(CC(=O)O)CCN(CC(=O)O)CC1)C(=O)N[C@H]1CSSC[C@@H](C(=O)NCCC(=O)O)NC(=O)[C@H](Cc2ccccc2)NC(=O)[C@H](CCC(N)=O)NC(=O)[C@H]([C@@H](C)O)NC(=O)[C@@H]2CCCN2C(=O)[C@@H]2CCCN2C1=O [Compound 1018, NODAGA-Ttds-Nle-[Cys-Pro-Pro-Thr-Gln-Phe-Cys]-Bal-OH]				

— patent US20240115745A1, “COMPOUNDS COMPRISING A FIBROBLAST ACTIVATION PROTEIN LIGAND AND USE THEREOF” (3B PHARMACEUTICALS GMBH, priority 2021, published 2024)
